Legend:
Assay type in all cases: in vivo
[1] = system: Amaranthus retroflexus; assay: Herbicidal pre-emergence action against harmful plants; settings: dosage of 1000 g and less than 1000 g of active substance per hectare, visual scoring after 3 to 4 weeks, greenhouse
From the text: (§1) 1. Herbicidal Pre-Emergence Action Against Harmful Plants
(§2) Seeds of mono- and dicotyledonous harmful plants are put in sandy loam in cardboard pots and covered with soil. The compounds according to the invention, which are formulated in the form of wettable powders or emulsion concentrates, are then applied to the surface of the soil cover as an aqueous suspension or emulsion at an application rate of 600 to 800 l/ha (converted) in various dosages. After the treatment, the pots are placed in a greenhouse and kept under good growth conditions for the weeds. Visual scoring of the plant damage or emergence damage is carried out after the test plants have emerged after a test period of 3 to 4 weeks in comparison with untreated controls.

[2] = system: Setaria viridis; assay: as above; settings: dosage of 1000 g and less than 1000 g of active substance per hectare, visual scoring after 3 to 4 weeks, greenhouse
From the text: as §1, §2

[3] = system: Stellaria media; assay: as above; settings: dosage of 1000 g and less than 1000 g of active substance per hectare, visual scoring after 3 to 4 weeks, greenhouse
From the text: as §1, §2

[4] = system: Amaranthus retroflexus; assay: Herbicidal post-emergence action against harmful plants; settings: three-leaf stage, dosage of 1000 g and less than 1000 g of active substance per hectare, scored after 3 to 4 weeks, greenhouse
Method: (§3) 2. Herbicidal Post-Emergence Action Against Harmful Plants
(§4) Seeds of mono- and dicotyledonous harmful plants are put into sandy loam in cardboard pots, covered with soil and grown in the greenhouse under good growth conditions. Two to three weeks after sowing, the test plants are treated at the three-leaf stage. The compounds according to the invention, which are formulated as wettable powders or as emulsion concentrates, are sprayed onto the surface of the green plant parts in various dosages at a water application rate of 600 to 800 l/ha (converted). After the test plants have been left to stand in the greenhouse for 3 to 4 weeks under optimum growth conditions, the action of the compounds is scored.

[5] = system: Avena fatua; assay: as above; settings: three-leaf stage, dosage of 1000 g and less than 1000 g of active substance per hectare, scored after 3 to 4 weeks, greenhouse
Method: as §3, §4

[6] = system: Sinapis arvensis; assay: as above; settings: three-leaf stage, dosage of 1000 g and less than 1000 g of active substance per hectare, scored after 3 to 4 weeks, greenhouse
Method: as §3, §4

[7] = system: Stellaria media; assay: as above; settings: three-leaf stage, dosage of 1000 g and less than 1000 g of active substance per hectare, scored after 3 to 4 weeks, greenhouse
Method: as §3, §4

[8] = system: Lolium multiflorum; assay: Herbicidal pre-emergence action against harmful plants; settings: dosage of 1000 g and less than 1000 g of active substance per hectare, visual scoring after 3 to 4 weeks, greenhouse
From the text: as §1, §2

Cc1cc(-n2cc(C(F)(F)F)cn2)nc(Oc2csc(C(F)(F)F)c2)n1 [7.13]
100%: action against Amaranthus retroflexus [1] | action against Setaria viridis [2] | action against Stellaria media [3]

CCc1cc(-n2cc(C(F)(F)F)cn2)nc(Oc2cc(C(F)(F)F)nn2C)n1 [9.25]
100%: action against Amaranthus retroflexus [4] | action against Avena fatua [5] | action against Sinapis arvensis [6] | action against Stellaria media [7]

CCc1cc(-n2cc(C(F)(F)F)c(C)n2)nc(Oc2ccnc(C(F)(F)F)c2)n1 [1.26]
100%: action against Amaranthus retroflexus [1] | action against Lolium multiflorum [8] | action against Setaria viridis [2] | action against Stellaria media [3]

Cc1cc(-n2cc(C(F)(F)F)c(C)n2)nc(Oc2ccnc(C(F)(F)F)c2)n1 [1.14]
100%: action against Amaranthus retroflexus [1] | action against Lolium multiflorum [8] | action against Setaria viridis [2] | action against Stellaria media [3]

Cc1cc(-n2cc(C(F)(F)F)c(C)n2)nc(Oc2cc(C(F)(F)F)nn2C)n1 [9.14]
100%: action against Amaranthus retroflexus [1] | action against Setaria viridis [2] | action against Stellaria media [3]

Cc1cc(-n2cc(C(F)(F)F)cn2)nc(Oc2cc(C(F)(F)F)nn2C)n1 [9.13]
100%: action against Amaranthus retroflexus [1] | action against Setaria viridis [2] | action against Stellaria media [3]

COc1cc(-n2ncc(C(F)(F)F)c2C)nc(Oc2ccnc(C(F)(F)F)c2)n1 [1.39]
100%: action against Amaranthus retroflexus [1] | action against Lolium multiflorum [8] | action against Setaria viridis [2] | action against Stellaria media [3]

COc1cc(-n2cc(C(F)(F)F)cn2)nc(Oc2ccnc(OC(F)F)c2)n1 [1.46]
100%: action against Amaranthus retroflexus [1] | action against Lolium multiflorum [8] | action against Setaria viridis [2] | action against Stellaria media [3] | action against Amaranthus retroflexus [4] | action against Avena fatua [5] | action against Sinapis arvensis [6] | action against Stellaria media [7]
